Assay results taken from patent US20030216471A1, “Retinoid formulations for aerosolization and inhalation” (priority 2003, published 2003).
Values joined by “and” are separate entries in the source; they are usually repeats but may differ in a detail not shown here. Equal entries are not always repeated. “Also recorded” adds a separate entry of the source. Where two headings read alike, the source gives them in different places.

Tests used:
TGase II [1] = test: TGase II activity in cultured human breast cancer MCF-7 cells; type: cell-based; settings: MCF-7 cells, 10^−6 M, 72 hours, over DMSO
Protocol: Cells were harvested and Transglutaminase II activity was measured as described below. Nebulizer solution, inhalation procedures, details of animal housing are described below.
Cultured cells were placed in 100 μl scraping buffer [A: 2800 μl (400 μl 0.5M Na-Phosphate, 500 μl 0.01M EDTA, 100 μl 1M DTT, 9 ml PBS total 10 ml)+B:700 μl (10 μl 20 mg/ml PMSF 790 μl PBS total 800 μl)] for each dish. Cells were broken by a sonicator and kept in ice until used. TGase II assay was conducted as described below and previously {8217}.
(§1) Enzyme assay mixtures were prepared by adding 80 μl of SUBSTRATE mixture (322.8 μl H2O, 120 μl 0.5M NaBorate, 60 μl 0.01M EDTA, 60 μl 0.1M CaCl2, 6 μl 1M DTT, 240 μl dimethyl casein, 30 μl Triton X-100, 1.21 μl [^3H]-Putrescine, 120 μl Putrescine) to 20 μl sample, 20 μl scraping buffer for blank control, 20 μl (18 μl scraping buffer+2 μl TGase II) for positive control. Samples were mixed in 15 ml tubes, the tubes were shaken before putting them into a 28° C. water bath for 30 minutes. Reactions were slowed down in an ice bath. 80 μl of the incubation mixture was adsorbed onto paper disks. These were immediately dropped into cold 10% TCA (0.1% Putrescine) and washed with agitation for 7 minutes, followed by 2 additional washes with 5% TCA (0.05% putrescine) for 5-7 minutes, and once more with cold (−20° C.) 95% ethanol for 5 minutes. Paper disks were dried and placed into 5 ml Aquasol, and counted in a Liquid Scintillation Counter. Protein concentration determination was conducted by the Bradford method.

TGase II [2] = test: TGase II assay of rat liver tissue after inhaled 13-cis RA (experiment B); type: in vivo; settings: for TGase II assay, rat liver: 14 days
Protocol: (§2) The experimental groups were as follows (Table 1): 1. Vehicle control: rats (3) inhaled vehicle for 240 minutes; 2.
For liver tissue, a piece of approximately 100-400 mg was used. Tissue was diced in small pieces and homogenized in approximately 2 volumes of scraping buffer for 2-3 minutes at 4° C. Samples were centrifuged at 14,000 xg for 30 minutes at 4° C. The supernatant was removed and kept in ice until used.
as §1

liver RARs = test: Western blot of rat liver RARs after inhaled 13-cis RA; type: in vivo; settings: not shown
Protocol: The experimental groups were as follows (Table 4):1. Vehicle (10/9 mix of PEG 300 and Ethanol with 0.5% of ascorbic acid and 0.5% phosphatidyl choline) control, day 1: rats (19) inhaled vehicle for 2 hr for one day; 2. […] Vehicle control, day 28: rats (16) inhaled vehicle as for group 1 for a period of 28 days; 5.
as §2
Tissues were collected, frozen in dry ice and kept at −70° C. until used. 500 mg aliquots were diced in small pieces and homogenized in 300 μl of cold PBS, using the hand held homogenizer for 2˜3 minutes. Sample and washes were centrifuged at 5000×g for 20 minutes. The pellet was suspended in 400 μl of ice-cold Buffer A [2 μl 0.5M EDTA, 10 μl 100 mM EGTA, 50 μl 100MM PMSF, 10 μl 1M DTT, 10 ml (10 mM HEPES pH 7.9+10 mM KCl)], and left at ice temperature for 15 minutes. 25 μl of 10% solution of NP-40 was added and samples were mixed in a vortex vigorously for 10 seconds. Samples were centrifuged at 14,000×g for 1 minute at 4° C. and the pellet treated once more in this fashion (resuspended etc.). The supernatant was removed and 100 μl of ice-cold Buffer C [4 μl 0.5M EDTA, 20 μl 100 mM EGTA, 20 μl 100 mM PMSF, 2 μl 1M DTT, 2 ml (20 mM HEPES pH 7.9+0.4M NaCl)] was added. Pellets were resuspended by tapping gently on the bottom of the Eppendorf tubes. […]

A/J mouse = settings: cited from earlier work; for Efficacy (Carcinogen): 20 weeks, urethane
[3] = doses used in the MD Anderson study, based on pharmacokinetic data; cited from earlier work

For `CC1=C(/C=C/C(C)=C/C=C/C(C)=C\C(=O)O)C(C)(C)CCC1` [13-cis RA, 13-cis-Retinoic Acid], the “stimulating TGase II activity” value (TGase II [1]) was 6.1 Fold, the “TGase II assay, rat liver” value (TGase II [2]; High dose) was 19719 DPM/μg protein and the “TGase II assay, rat liver” value (TGase II [2]; High dose: 1872 μg/kg total deposited) was 0.271+/−0.015 picomoles/μg protein/30 min and 0.271 ± 0.015 picomoles/μg protein/30 min. For the same compound, the “TGase II assay, rat liver” value (TGase II [2]; Low dose, vehicle 20426) was 22705 DPM/μg protein, the “TGase II assay, rat liver” value (TGase II [2]; Low dose: 39 μg/kg total deposited, vehicle 0.260) was 0.289+/−0.007 picomoles/μg protein/30 min and 0.289 ± 0.007 picomoles/μg protein/30 min and the “TGase II assay, rat liver” value (TGase II [2]; Low-Middle dose) was 21448 DPM/μg protein. The “TGase II assay, rat liver” value (TGase II [2]; Low-Middle dose: 117 μg/kg total deposited) was 0.273+/−0.018 picomoles/μg protein/30 min and 0.273 ± 0.018 picomoles/μg protein/30 min, the “TGase II assay, rat liver” value (TGase II [2]; Middle dose) was 24590 DPM/μg protein and the “TGase II assay, rat liver” value (TGase II [2]; Middle dose: 351 μg/kg total deposited) was 0.313+/−0.025 picomoles/μg protein/30 min and 0.313 ± 0.025 picomoles/μg protein/30 min. For the same compound, the “TGase II assay, rat liver” value (TGase II [2]; Middle-High dose) was 20348 DPM/μg protein, the “TGase II assay, rat liver” value (TGase II [2]; Middle-High dose: 936 μg/kg total deposited) was 0.269+/−0.015 picomoles/μg protein/30 min and 0.269 ± 0.015 picomoles/μg protein/30 min and the “effect of inhaled 13-cis RA on liver TGase II activity” value (TGase II [2]; rat, up to 5.93 mg/kg of inhaled dose) was “without significant effect; also recorded: fails to significantly alter; also recorded: no significant effect”. For the same compound, the “effect of inhaled 13-cis RA on liver RARs” value (liver RARs; 5 to 240 minutes daily for 14 days) was “not responsive”, the “effect of inhaled 13-cis RA on liver RARs” value (liver RARs; same rats as FIG. 2A (experiment A)) was “failed to show any increase” and the “Efficacy (Carcinogen)” value (A/J mouse; 200 mg/kg weekly ingested (po)) was “No (urethane)”. For the same compound, the “Efficacy (Carcinogen)” value (A/J mouse; 400 mg/kg weekly ingested (po)) was “No (urethane)”, the “prevention of urethane-induced lung cancer” value (A/J mouse; orally administered, over 300 mg/kg weekly, A/J mouse model) was “failed to prevent” and the steady-state blood levels [3] was 100 to 200 ng/mL.
